Data on twelve molecules can be found in patent US20030134292A1, “Thermostable DNA polymerases and methods of making same” (priority 2001, published 2003).

Holding throughout (assay type): biochemical
The target of assay [1] is T1, Taq Δ271 F667Y E681W (polymerase B) (Thermus aquaticus, UniProt P19821, E681W/F272M/F667Y).
T1 construct: made in house; host or cells: E. coli
In words: DNA polymerase activity assay with detergent or additive, Taq Δ271 F667Y E681W purified without detergent. The procedure: (§1) DNA polymerase activity was measured by running reactions of 50 μL containing 25 mM TAPS (tris-hydroxymethyl-methylaminopropane sulfonic acid) buffer, pH 9.3 (measured at 25° C.), 50 mM KCl, 2 mM MgCl2, 1 mM 2-mercaptoethanol, 0.2 mM each of dGTP, dCTP, dTTP, 0.2 mM [α-^33P]-dATP (0.05-0.1 Ci/mmol) and 0.4 mg/mL activated salmon sperm DNA. The reaction mixture (45 μL) was pre-heated to 74° C. and diluted polymerase (5 μL) added with thorough mixing. After 10 minutes of further incubation at 74° C., the reaction was stopped by the addition of 10 μL of 60 mM EDTA and the entire mixture placed at 0° C. Acid-precipitable radioactivity was determined on an aliquot ([…]) by diluting with 1 ml of 2 mM EDTA containing 0.05 mg/ml salmon sperm DNA and adding 1 mL of 20% (w/v) trichloroacetic acid, 2% (w/v) sodium pyrophosphate (Na4P2O7 10H2O) and incubating on ice for at least 15 minutes. Precipitated DNA was collected by filtering through 2.4 cm GFC filter disks (Schleichter and Schuell) and washed 7 times with 5ml of with 1 N HCl, 0.1 M sodium pyrophosphate. The filter was placed in 3 ml of aqueous scintillation counting fluid and ^33P-specific radioactivity determined by scintillation counting.
(§2) For the assays presented in Tables 5 and 6, the polymerase was diluted 10-5000 fold in a buffer containing 25 mM Tris-HCl pH 8.0, 50 mM KCl, 1 mM 2-mercaptoethanol, and the indicated concentration of detergent or other additive. Where possible, only reactions which incorporated 20- 100 pmol of dAMP in 10 minutes were used for calculation of activity.

Assay [2] concerns the target T2, Tth Δ273 F668Y (polymerase C) (Thermus thermophilus, UniProt P52028, F274M/F669Y).
T2 construct: made in house; host or cells: E. coli
In words: DNA polymerase activity assay with detergent or additive, Tth Δ273 F668Y purified without detergent. The procedure:
as §1, §2

In assay [3] the target is T3, Taq Δ271 F667Y (polymerase A) (Thermus aquaticus, UniProt P19821, F272M/F667Y).
T3 construct: made in house; host or cells: E. coli
T3 sequence (P19821 272-832 F272M/F667Y): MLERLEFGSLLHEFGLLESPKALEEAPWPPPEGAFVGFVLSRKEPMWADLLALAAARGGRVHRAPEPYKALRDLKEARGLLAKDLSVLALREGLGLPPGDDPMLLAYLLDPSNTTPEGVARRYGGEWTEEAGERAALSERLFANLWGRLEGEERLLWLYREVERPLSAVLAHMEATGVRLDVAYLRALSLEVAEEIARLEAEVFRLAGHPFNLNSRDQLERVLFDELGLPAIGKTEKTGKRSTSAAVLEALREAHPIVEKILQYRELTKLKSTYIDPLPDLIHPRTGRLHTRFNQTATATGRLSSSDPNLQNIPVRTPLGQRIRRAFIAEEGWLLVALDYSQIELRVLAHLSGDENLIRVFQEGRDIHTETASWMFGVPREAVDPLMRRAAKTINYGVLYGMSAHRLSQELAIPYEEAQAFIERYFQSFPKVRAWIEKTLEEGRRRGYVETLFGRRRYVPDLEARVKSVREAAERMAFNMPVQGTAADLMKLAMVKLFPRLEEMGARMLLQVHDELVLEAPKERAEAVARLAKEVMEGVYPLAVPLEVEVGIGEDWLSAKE
In words: DNA polymerase activity assay with detergent or additive, Taq Δ271 F667Y purified without detergent. As to the method: as §1, §2

The mark [4] stands for this setting: additive final concentration 0.01% (w/v).
[5] abbreviates: additive final concentration 0.05% (w/v).
The mark [6] stands for this setting: additive final concentration 0.1% (w/v).
Where [7] appears, read: additive final concentration 0.001% (w/v) in assay reaction mixture.
Setting [8] is: additive final concentration 0.5% (w/v).
The mark [9] stands for this setting: additive final concentration 0.85% (w/v).
Where [10] appears, read: additive final concentration 60 μg/ml.
[11] abbreviates: additive final concentration 20 μg/ml.
The mark [12] stands for this setting: additive final concentration 100 μg/ml.

T1 sequence (P19821 272-832 F272M/F667Y/E681W): as the sequence (P19821 272-832 F272M/F667Y) above, with E410W counted along it
T2 sequence (P52028 274-834 F274M/F669Y): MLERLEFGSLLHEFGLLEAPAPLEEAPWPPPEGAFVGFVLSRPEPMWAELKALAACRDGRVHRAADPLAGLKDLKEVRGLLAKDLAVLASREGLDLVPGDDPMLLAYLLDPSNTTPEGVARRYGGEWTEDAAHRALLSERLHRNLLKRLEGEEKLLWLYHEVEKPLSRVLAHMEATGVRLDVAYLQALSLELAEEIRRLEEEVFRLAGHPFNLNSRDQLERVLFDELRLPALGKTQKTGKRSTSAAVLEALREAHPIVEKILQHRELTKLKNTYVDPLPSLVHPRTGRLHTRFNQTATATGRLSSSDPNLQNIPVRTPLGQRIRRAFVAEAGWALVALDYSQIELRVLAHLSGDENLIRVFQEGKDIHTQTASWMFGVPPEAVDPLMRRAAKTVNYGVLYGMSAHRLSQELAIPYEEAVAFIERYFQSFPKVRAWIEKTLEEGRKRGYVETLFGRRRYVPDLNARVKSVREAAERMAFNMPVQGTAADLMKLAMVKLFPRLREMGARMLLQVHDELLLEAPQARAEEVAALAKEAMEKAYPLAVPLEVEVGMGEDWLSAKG

With `C[C@H](CCC(=O)NCCC[N+](C)(C)CCCS(=O)(=O)[O-])[C@H]1CC[C@H]2[C@@H]3[C@H](O)C[C@@H]4C[C@H](O)CC[C@]4(C)[C@H]3C[C@H](O)[C@]12C` [CHAPS, 3-[(3-Cholamidopropyl)dimethylammonio]-1-propanesulfonate], the “Taq Δ271 F667Y E681W activity relative to 0.5% each NP-40 and Tween 20” value is “− − − (Activity < 20%)” in assay [1] (setting [4]), “− − (Activity 20-50%)” in assay [1] (setting [5]) and “− (Activity 50-60%)” in assay [1] (setting [6]). Besides, the “Tth Δ273 F668Y activity relative to 0.5% each NP-40 and Tween 20” value in assay [2] (setting [4]) was “− (Activity 50-60%)”; in assay [2] (setting [5]) it was “− − (Activity 20-50%)”; in assay [2] (setting [6]), “− − (Activity 20-50%)”. Besides, the figures for the “Taq Δ271 F667Y activity relative to 0.5% each NP-40 and Tween 20” value in assay [3] (setting [4]), in assay [3] (setting [5]) and in assay [3] (setting [6]) were “− − (Activity 20-50%)”, “− (Activity 50-60%)” and “+ (Activity 60-70%)”, respectively.
Turning to `C[C@H](CCC(=O)NCCC[N+](C)(C)CC(O)CS(=O)(=O)[O-])[C@H]1CC[C@H]2[C@@H]3[C@H](O)C[C@@H]4C[C@H](O)CC[C@]4(C)[C@H]3C[C@H](O)[C@]12C` (some centres unmarked) [CHAPSO, 3-[(3-Cholamidopropyl)dimethylammonio]-2-hydroxy-1-propanesulfonate], the “Taq Δ271 F667Y E681W activity relative to 0.5% each NP-40 and Tween 20” value in assay [1] (setting [4]) was “− − − (Activity < 20%)”; in assay [1] (setting [5]), “− − (Activity 20-50%)”; in assay [1] (setting [6]) it was “− − (Activity 20-50%)”. For the same molecule, the “Tth Δ273 F668Y activity relative to 0.5% each NP-40 and Tween 20” value in assay [2] (setting [4]) is “− (Activity 50-60%)”; in assay [2] (setting [5]), “− − (Activity 20-50%)”; in assay [2] (setting [6]) it was “− − (Activity 20-50%)”. Also, the “Taq Δ271 F667Y activity relative to 0.5% each NP-40 and Tween 20” value in assay [3] (setting [4]) is “− − − (Activity < 20%)”; in assay [3] (setting [5]), “− − (Activity 20-50%)”; in assay [3] (setting [6]), “+ (Activity 60-70%)”.
Turning to `CC1=NCC[C@@H](C(=O)O)N1` [Ectoin], the “Taq Δ271 F667Y E681W activity relative to 0.5% each NP-40 and Tween 20” value in assay [1] (setting [7]), in assay [1] (setting [4]) and in assay [1] (setting [6]) was “− − − (Activity < 20%)” in each case. The “Tth Δ273 F668Y activity relative to 0.5% each NP-40 and Tween 20” value in assay [2] (setting [7]), in assay [2] (setting [4]) and in assay [2] (setting [6]) was “− − − (Activity < 20%)” each time. Further, the “Taq Δ271 F667Y activity relative to 0.5% each NP-40 and Tween 20” value in assay [3] (setting [7]), in assay [3] (setting [4]) and in assay [3] (setting [6]) was “− − − (Activity < 20%)” in each case.
On to `CC1=NC[C@H](O)[C@@H](C(=O)O)N1` [Hydroxyectoin], for which the “Taq Δ271 F667Y E681W activity relative to 0.5% each NP-40 and Tween 20” value in assay [1] (setting [4]) and in assay [1] (setting [5]) was “− − − (Activity < 20%)” each time. Also, the “Tth Δ273 F668Y activity relative to 0.5% each NP-40 and Tween 20” value in assay [2] (setting [4]) and in assay [2] (setting [5]) was “− − − (Activity < 20%)” each time. Further, the “Taq Δ271 F667Y activity relative to 0.5% each NP-40 and Tween 20” value in assay [3] (setting [4]) and in assay [3] (setting [5]) was “− − − (Activity < 20%)” throughout.
Turning to `CCCCCCCC(=O)N(C)C[C@H](O)[C@@H](O)[C@H](O)[C@H](O)CO` [Mega-8, Ocatanoyl-N-mehtylglucamide], the “Taq Δ271 F667Y E681W activity relative to 0.5% each NP-40 and Tween 20” value in assay [1] (setting [7]) was “− − − (Activity < 20%)”; in assay [1] (setting [4]) it was “− − − (Activity < 20%)”; in assay [1] (setting [6]) it was “− (Activity 50-60%)”; in assay [1] (setting [8]), “+ + + (Activity > 80% (relative to activity using 0.5% each NP-40 and Tween 20))”; in assay [1] (setting [9]), “− − (Activity 20-50%)”. The “Polymerase B Activity (%)” value in assay [1] (detergent 0.5% (w/v)) is 71%. Also, the “Tth Δ273 F668Y activity relative to 0.5% each NP-40 and Tween 20” value in assay [2] (setting [6]) was “+ + (Activity 70-80%)”; in assay [2] (setting [8]), “+ (Activity 60-70%)”; in assay [2] (setting [9]), “+ (Activity 60-70%)”. Also, in assay [2] (detergent 0.5% (w/v)), the “Polymerase C Activity (%)” value stood at 84.5%. The “Taq Δ271 F667Y activity relative to 0.5% each NP-40 and Tween 20” value is “+ + (Activity 70-80%)” in assay [3] (setting [6]) and “+ (Activity 60-70%)” in assay [3] (setting [9]). The “Polymerase A Activity (%)” value in assay [3] (detergent 0.5% (w/v)) was 76.6%.
Regarding `CCCCCCCCC(=O)N(C)C[C@H](O)[C@@H](O)[C@H](O)[C@H](O)CO` [Mega-9, Nonyl-N-methylglucamide], the “Taq Δ271 F667Y E681W activity relative to 0.5% each NP-40 and Tween 20” value in assay [1] (setting [4]) is recorded as “− − − (Activity < 20%)”; in assay [1] (setting [5]), “+ + (Activity 70-80%)”. Moreover, the “Polymerase B Activity (%)” value in assay [1] (detergent 0.05% (w/v)) is recorded as 82%. Besides, the “Tth Δ273 F668Y activity relative to 0.5% each NP-40 and Tween 20” value is “− − (Activity 20-50%)” in assay [2] (setting [4]); “+ + + (Activity > 80% (relative to activity using 0.5% each NP-40 and Tween 20))” in assay [2] (setting [5]). In assay [2] (detergent 0.05% (w/v)), the “Polymerase C Activity (%)” value turned out to be 74%. Further, the “Taq Δ271 F667Y activity relative to 0.5% each NP-40 and Tween 20” value is on record as “− − − (Activity < 20%)” in assay [3] (setting [4]) and “− − (Activity 20-50%)” in assay [3] (setting [5]). Besides, in assay [3] (detergent 0.05% (w/v)), the “Polymerase A Activity (%)” value is given as 71.2%.
On to `CCCCCCCCCC(=O)N(C)C[C@H](O)[C@@H](O)[C@H](O)[C@H](O)CO` [Mega-10, D-decanoyl-N-methyl glucamide], for which the “Taq Δ271 F667Y E681W activity relative to 0.5% each NP-40 and Tween 20” value was “− − − (Activity < 20%)” in assay [1] (setting [4]); “+ + + (Activity > 80% (relative to activity using 0.5% each NP-40 and Tween 20))” in assay [1] (setting [5]). The “Polymerase B Activity (%)” value in assay [1] (detergent 0.05% (w/v)) stood at 73%. The “Tth Δ273 F668Y activity relative to 0.5% each NP-40 and Tween 20” value in assay [2] (setting [7]) is recorded as “− − (Activity 20-50%)”; in assay [2] (setting [4]), “+ + (Activity 70-80%)”; in assay [2] (setting [5]), “− − (Activity 20-50%)”. Besides, in assay [2] (detergent 0.05% (w/v)), the “Polymerase C Activity (%)” value amounted to 100%. In addition, the “Taq Δ271 F667Y activity relative to 0.5% each NP-40 and Tween 20” value is “− − − (Activity < 20%)” in assay [3] (setting [7]), “− − (Activity 20-50%)” in assay [3] (setting [4]) and “+ + (Activity 70-80%)” in assay [3] (setting [5]). For the same molecule, the “Polymerase A Activity (%)” value in assay [3] (detergent 0.05% (w/v)) came to 94%.
Turning to `CCCCCCCCCCCCCC[N+](C)(C)CCCS(=O)(=O)[O-]` [Zwittergent 3-14], in assay [1] (setting [4]), the “Taq Δ271 F667Y E681W activity relative to 0.5% each NP-40 and Tween 20” value is reported as “− − − (Activity < 20%)”.
Regarding “Bovine Serum Albumin (BSA): Bovine Serum Albumin”, in assay [2] (setting [10]), the “Tth Δ273 F668Y activity relative to 0.5% each NP-40 and Tween 20” value was “− − (Activity 20-50%)”. For the same molecule, in assay [3] (setting [10]), the “Taq Δ271 F667Y activity relative to 0.5% each NP-40 and Tween 20” value is given as “− (Activity 50-60%)”.
Turning to “E. coli Single-Stranded DNA Binding Protein: E. coli Single-Stranded DNA Binding Protein”, the “Tth Δ273 F668Y activity relative to 0.5% each NP-40 and Tween 20” value in assay [2] (setting [11]) and in assay [2] (setting [12]) was “− − − (Activity < 20%)” throughout.
Turning to gelatin, the “Tth Δ273 F668Y activity relative to 0.5% each NP-40 and Tween 20” value in assay [2] (additive final concentration 50 μg/ml) is given as “− − − (Activity < 20%)”.

B1: T4 gene 32 Protein: T4 gene 32 Protein (protein, UniProt P03695 1-301, looked up)
Single-stranded DNA-binding …: MFKRKSTAELAAQMAKLNGNKGFSSEDKGEWKLKLDNAGNGQAVIRFLPSKNDEQAPFAILVNHGFKKNGKWYIETCSSTHGDYDSCPVCQYISKNDLYNTDNKEYSLVKRKTSYWANILVVKDPAAPENEGKVFKYRFGKKIWDKINAMIAVDVEMGETPVDVTCPWEGANFVLKVKQVSGFSNYDESKFLNQSAIPNIDDESFQKELFEQMVDLSEMTSKDKFKSFEELNTKFGQVMGTAVMGGAAATAAKKADKVADDLDAFNVDDFNTKTEDDFMSSSSGSSSSADDTDLDDLLNDL
B1: the “Tth Δ273 F668Y activity relative to 0.5% each NP-40 and Tween 20” value in assay [2] (setting [11]) and in assay [2] (setting [12]) was “− − − (Activity < 20%)” throughout.
